{"source": "patent US20050054722A1", "about": "“Inhibition of two-component signal transduction systems” (Unisearch Limited,, priority 1999, published 2005)", "key": {"[1]": {"tested_on": "Staphylococcus aureus", "test": "Minimum inhibitory (growth) concentration, S. aureus", "type": "cell-based", "conditions": "growth curves, OD 610 nm", "experimental": "(§1) Growth curve method. Bacteria are grown overnight in standard medium. The following morning, the cells were inoculated into fresh medium at 1% (a 1 in 100 dilution). Furanones were added either at the beginning of growth (time 0) or, as was the case for the B. subtilis experiments, the results of which are shown in FIG. 1, during the mid-logarithmic phase of growth. Growth was then monitored regularly by spectrophotometric readings, at a wavelength of 610 nm. Using the type of growth described above, the minimum growth inhibitory concentration of furanones was determined for S. aureus and Streptococcus spp. were determined for a range of compounds."}, "[2]": {"tested_on": "Bacillus subtilis strain ATCC 6633 and NCTC 10073", "test": "Growth curves, Bacillus subtilis", "type": "cell-based", "conditions": "compound added at 8-9 hours of growth, FIG. 1", "experimental": "The compound was added at 8-9 hours, as denoted by the arrows, after the cultures had been growing. B. subtilis has a two component system that, when deleted, results in lysis and cell death.\nas §1, with “nm.” for “nm. Using the type of growth described above, the minimum growth inhibitory concentration of furanones was determined for S. aureus and Streptococcus spp. were determined for a range of compounds.”"}, "[3]": {"tested_on": "P. syringae var tomato BB27 swarming (GacS/GacA)", "test": "GacS/GacA assay (swarming on 0.4% agar SWM plates)", "type": "cell-based, Pseudomonas syringae var. tomato", "experimental": "P. syringae var tomato BB27 was grown overnight in SWM media at room temperature. This culture was used to stab inoculate SWM plates made up with 0.4% agar and incubated at room temperature (20° C.). The culture was also used to stab inoculate sets of SWM plates (0.4% agar) that bad been made up with 25 μg/ml and 50 μg/ml of the test compound (stock solutions made up in ethanol). These plates were also incubated at room temperature for 36 hours before being examined for swarming activity and photographed. Before use all 0.4% agar SWM plates were allowed to air-dry for two hours in a laminar flow cabinet at room temperature.\nFuranones interfere with the “swarming” response of Pseudomonas syringae, which is regulated by the GacS/GacA two-component signal transduction system (Kinscherf and Willis, 1999)."}, "[4]": {"tested_on": "CopS/CopR two component signal transduction system", "test": "CopS/CopR assay (cop'-lacZ, Cu2+-induced)", "type": "cell-based, Pseudomonas syringae pv. syringae", "conditions": "for cop'-lacZ expression: 0.075 mM CuSO4, 6.5 hours", "experimental": "P. syringae pv syringae PS61 (pCOP38)(pPT23D) was grown on SWM media (Kinscherf and Willis, 1999) at room temperature with shaking for 48 hours. Five μg/ml streptomycin, 15 μg/ml chloramphenicol and 1.0 mM CuSO4 were added to maintain plasmids. This culture was used to inoculate 50 ml SWM media in side-arm flasks with the addition of antibiotics. These cultures were incubated at room temperature with shaking for 16 hours (OD610=0.2) at which point CuSO4 was added to a concentration of 0.075 mM (CuSO4 solution made up in MQ water).\nThe test compound or mixtures of compounds were dissolved in ethanol and added to cultures to give the required final concentrations. Equal volumes of ethanol were added to Cu^2+ negative and positive cultures. Cultures were incubated for 6.5 hours at room temperature with shaking before being placed on ice. Samples were then removed for β-galactosidase assays. β-galactosidase assays were carried out in the same manner as those for the Taz assay described above.\nThe effect of furanone compound 3 on the CopS/CopR two component signal transduction system that regulates copper resistance in Pseudomonas syringae pv. syringae (Mills et al., 1993) was assessed. […] However, there appears to be no difference in terms of lacZ expression between the two concentrations (p>0.15)."}, "[5]": {"tested_on": "Streptococcus spp.", "test": "Minimum inhibitory (growth) concentration, Streptococcus spp.", "type": "cell-based", "conditions": "growth curves, OD 610 nm", "experimental": "as §1"}, "[6]": {"tested_on": "Streptococcus pneumoniae", "conditions": "cited from earlier work"}, "[7]": {"tested_on": "S. aureus cells", "conditions": "cited from earlier work"}, "[8]": {"biological_target": "HPK NRII (Escherichia coli, UniProt P0AFB5)", "sequence (P0AFB5 whole entry)": "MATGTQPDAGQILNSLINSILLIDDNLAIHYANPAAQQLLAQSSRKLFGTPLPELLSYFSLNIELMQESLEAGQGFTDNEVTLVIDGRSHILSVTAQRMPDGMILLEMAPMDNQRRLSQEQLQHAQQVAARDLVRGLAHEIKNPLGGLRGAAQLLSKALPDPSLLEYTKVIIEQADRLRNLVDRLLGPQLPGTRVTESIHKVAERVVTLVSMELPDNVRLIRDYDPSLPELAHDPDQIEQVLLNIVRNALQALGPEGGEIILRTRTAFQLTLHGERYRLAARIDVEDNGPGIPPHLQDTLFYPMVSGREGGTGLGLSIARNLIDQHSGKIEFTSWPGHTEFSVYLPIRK", "conditions": "Hilliard et al. 1999; cited from earlier work"}, "[9]": {"tested_on": "E. faecium", "conditions": "cited from earlier work"}, "[10]": {"tested_on": "S. aureus", "conditions": "cited from earlier work"}}, "data": [{"smiles": "CCCCC1=C(Br)/C(=C/Br)OC1=O", "note": "[Compound 2]", "values": [{"measurement": "Minimum inhibitory (growth) concentration, Staphylococcus aureus", "setting": "[1]", "value": "1 to 10", "unit": "µg/mL"}, {"measurement": "growth response (optical density)", "setting": "[2]", "value": "induction of cell lysis"}]}, {"smiles": "CCC[C@@H](OC(C)=O)C1=C(Br)/C(=C/Br)OC1=O", "note": "[Compound 3]", "values": [{"measurement": "swarming pattern", "setting": "[3]; 25 μg/ml, 36 hours", "value": "dramatically alters the swarming pattern"}, {"measurement": "growth of P. syringae var. tomato", "setting": "[3]; 50 μg/ml", "value": "did not inhibit the growth"}, {"measurement": "swarming", "setting": "[3]; 50 μg/ml, 36 hours", "value": "shut down swarming"}, {"measurement": "cop'-lacZ expression", "setting": "[4]; 25 μg/ml", "value": "significantly reduced"}, {"measurement": "cop'-lacZ expression", "setting": "[4]; 50 μg/ml", "value": "significantly reduced"}, {"measurement": "growth inhibitory effects", "setting": "[4]; at the concentrations used (25 and 50 μg/ml), P. syringae pv syringae", "value": "did not have any growth inhibitory effects"}]}, {"smiles": "CCC[C@@H](O)C1=C(Br)/C(=C/Br)OC1=O", "note": "[Compound 4]", "values": [{"measurement": "Minimum inhibitory (growth) concentration, Streptococcus spp.", "setting": "[5]", "value": 10, "unit": "µg/mL"}, {"measurement": "normal activity of the CopS/CopR two-component signal transduction system", "setting": "[4]; concentration not given", "value": "appeared to reduce the normal activity"}]}, {"smiles": "O=C1C=C(Br)/C(=C/Br)O1", "note": "[Compound 30]", "values": [{"measurement": "Minimum inhibitory (growth) concentration, Staphylococcus aureus", "setting": "[1]", "value": "1 to 20", "unit": "µg/mL"}, {"measurement": "Minimum inhibitory (growth) concentration, Streptococcus spp.", "setting": "[5]", "value": 10, "unit": "µg/mL"}, {"measurement": "swarming response in P. syringae", "setting": "[3]; concentration not given", "value": "inhibited the swarming response"}]}, {"smiles": "CCCCCC(Br)C1=C(Br)/C(=C/Br)OC1=O", "note": "(centres unmarked) [Compound 33]", "values": [{"measurement": "Minimum inhibitory (growth) concentration, Staphylococcus aureus", "setting": "[1]", "value": 0.5, "unit": "µg/mL"}]}, {"smiles": "CCCCCC(Br)C1=CC(=C(Br)Br)OC1=O", "note": "(centres unmarked) [Compound 34]", "values": [{"measurement": "Minimum inhibitory (growth) concentration, Staphylococcus aureus", "setting": "[1]", "value": 0.25, "unit": "µg/mL"}]}, {"smiles": "NC(N)=NCCc1ccc(OCCC(c2ccccc2)(c2ccccc2)c2ccccc2)cc1", "note": "[RWJ-49815]", "values": [{"measurement": "active concentration (antibacterial)", "setting": "[6]", "value": "1 to 2", "unit": "µg/mL"}, {"measurement": "permeability of the membranes of S. aureus cells", "setting": "[7]", "value": "caused a rapid increase in the permeability"}, {"measurement": "autophosphorylation of the HPK NRII", "setting": "[8]", "value": "inhibited the autophosphorylation"}, {"measurement": "active concentration (antibacterial)", "setting": "[9]", "value": "1 to 2", "unit": "µg/mL"}, {"measurement": "active concentration (antibacterial)", "setting": "[10]", "value": "1 to 2", "unit": "µg/mL"}]}]}
